Source: patent US5004738A, “1,1-dioxopenicillanoyl oxymethyl D-6-(α-(methyleneamino) phenylacetamido)-penicillanate and a process for the preparation thereof” (priority 1989, dated 1991)
≈ marks a conversion by molar mass, not a printed value.

Columns and labels:
[1] = tested on: gram-positive and gram-negative bacteria; conditions: cited from earlier work
[2] = tested on: Enterobacter cloacae 132E; experiment: In vitro antibacterial activity test (agar dilution, Mueller Hinton Agar); type: cell-based; conditions: 18 hours at 37° C.
Experimental: (§1) (1) In vitro antibacterial activity test
(§2) 2 fold dilutions of the testing compounds were employed by using agar dilution method of Mueller Hinton Agar. After 18 hours at 37° C., the susceptibility (MIC) of the test organism was accepted as the lowest concentration of compound capable of producing complete inhibition of growth as judged by the naked eye.

Escherichia coli DC2 = experiment: as above; type: cell-based; conditions: 18 hours at 37° C.
Experimental: as §1, §2

[3] = tested on: Staphylococcus aureus SG511; experiment: as above; type: cell-based; conditions: 18 hours at 37° C.
Experimental: as §1, §2

[4] = tested on: Streptococcus faecium MD8; experiment: as above; type: cell-based; conditions: Enterococcus faecium, 18 hours at 37° C.
Experimental: as §1, §2

β-lactamases = conditions: cited from earlier work

C=N[C@@H](C(=O)N[C@@H]1C(=O)N2[C@@H]1SC(C)(C)[C@@H]2C(=O)O)c1ccccc1 [Methanpicillin]
inhibition against gram-positive and gram-negative bacteria [1]: marked increase in inhibition against gram-positive and gram-negative bacteria

C=N[C@@H](C(=O)N[C@@H]1C(=O)N2[C@@H]1SC(C)(C)[C@@H]2C(=O)OCOC(=O)[C@@H]1N2C(=O)C[C@H]2S(=O)(=O)C1(C)C)c1ccccc1 [compound (I), 1,1-dioxopenicillanoyl oxymethyl D-6-[(α-methyleneamino)phenylacetamido]-penicillanate]
MIC [2]: 1.56 µg/mL (≈ 2.58 µM)
MIC (Escherichia coli DC2): 1.56 µg/mL (≈ 2.58 µM)
MIC [3]: 0.098 µg/mL (≈ 0.162 µM)
MIC [4]: 0.781 µg/mL (≈ 1.29 µM)

CC1(C)[C@H](C(=O)O)N2C(=O)C[C@H]2S1(=O)=O [sulbactam, 3.3-dimethyl-7-oxo-4thia-1-azabicyclo(3.2.0)heptane-2-carboxylic acid, 4-4-dioxide [2S(2α,5α)]]
inhibition of β-lactamases (β-lactamases; alone): poor inhibitor of β-lactamases
inhibition of the enzymatic hydrolysis of antibiotics (β-lactamases; with β-lactamase inhibiting antibiotics): modest increase in inhibition of the enzymatic hydrolysis of antibiotics
